According to PMC3834726 (Clinical cancer research : an official journal of the …, 2012):
Where two headings read alike, the source gives them in different places.

Legend:
blood 20S proteasome = assay: Pharmacodynamics: blood 20S proteasome activity; assay type: in vivo, human
advanced malignancies = assay: Tumor response; assay type: in vivo, human
[1] = human, in vivo
[2] = potent inhibitor of CYP2C19; cited from earlier work
[3] = including patients on dialysis; cited from earlier work

SMILES: CC(C)C[C@H](NC(=O)[C@H](Cc1ccccc1)NC(=O)c1cnccn1)B(O)O [bortezomib, Bortezomib]
- Magnitude of percent inhibition of blood 20S proteasome activity (blood 20S proteasome; 0.5 mg/m^2, severe hepatic impairment (data not shown)): lower than that observed at the higher dose levels
- Time of maximum mean percent inhibition of blood 20S proteasome activity (blood 20S proteasome; across dose levels and hepatic function groups, first post-dose time point): 1 h
- Mean percent inhibition of 20S proteasome activity at 24 hours post dose (blood 20S proteasome; normal hepatic function group, 1.3 mg/m^2, day 1): approximately 31%
- Patients achieving stable disease (advanced malignancies; all hepatic function groups): five
- Patients with progressive disease as best response (advanced malignancies; all patients): 35
- Study discontinuation due to disease progression (advanced malignancies; all patients): 37 (61%) n (%)
- Study discontinuation due to disease progression (advanced malignancies; mild impairment group): 11 (65%) n (%)
- Study discontinuation due to disease progression (advanced malignancies; moderate impairment group): 9 (75%) n (%)
- Study discontinuation due to disease progression (advanced malignancies; normal function group): 8 (57%) n (%)
- Study discontinuation due to disease progression (advanced malignancies; severe impairment group): 9 (50%) n (%)
- Disposition kinetics [1]: multi-exponential disposition kinetics
- Dose calculated to match exposures at 1.3 mg/m^2 in normal hepatic function [1]: approximately 0.8 mg/m^2
- Increase in dose-normalized AUC (systemic exposure) [1]: approximately 60%
- Increase in mean dose-normalized AUC0-tlast [1]: approximately 60%
- Observed mean increase in dose-normalized AUC relative to normal hepatic function group [1]: 1.6 fold
- Deaths during the study (all patients): 15
- Died during treatment (reason for study discontinuation) (all patients): 2 (3%) n (%)
- On-study deaths (all patients, N=61): 15 (25) n (%)
- Deaths due to disease progression (all patients, of 15 deaths): 12
- Anorexia, any grade (human, in vivo): 19 (31) n (%)
- Any AE (human, in vivo): 59 (97) n (%)
- Any drug-related AE (human, in vivo): 40 (66) n (%)
- Any grade ≥3 AE (human, in vivo): 49 (80) n (%)
- Any grade ≥4 AE (human, in vivo): 22 (36) n (%)
- Any serious AE (human, in vivo): 28 (46) n (%)
- Decreased platelet count, any grade (human, in vivo): 18 (30) n (%)
- Decreased platelet count, grade ≥3 (human, in vivo): 7 (11) n (%)
- Discontinuation due to grade 3 hypotension (human, in vivo): 1 patient
- Discontinuation due to grade 4 elevated blood bilirubin (human, in vivo): 2 patients
- Dyspnea, any grade (human, in vivo): 19 (31) n (%)
- Elevated AST, incidence (human, in vivo): 7%
- Elevated blood bilirubin, rate (human, in vivo): 7%
- Fatigue, any grade (human, in vivo): 31 (51) n (%)
- Fatigue, grade ≥3 (human, in vivo): 9 (15) n (%)
- Increased AST, grade ≥3 (human, in vivo): 6 (10) n (%)
- Increased blood bilirubin, grade ≥3 (human, in vivo): 7 (11) n (%)
- Nausea, any grade (human, in vivo): 24 (39) n (%)
- Rate of grade ≥3 AEs (human, in vivo): 71%
- Rate of grade ≥4 AEs (human, in vivo): 14%
- Dose-limiting toxicity (DLT) (in vivo): none of these events met the protocol-defined criteria for DLT
- Relation of elevations in liver function test parameters to drug (in vivo): not considered to be drug-related
- On-study deaths (mild impairment, 1.0 mg/m^2, n=6): 0 n (%)
- On-study deaths (mild impairment, 1.3 mg/m^2, n=11): 4 (36) n (%)
- On-study deaths (moderate impairment, 0.7 mg/m^2, n=9): 2 (22) n (%)
- On-study deaths (moderate impairment, 1.0 mg/m^2, n=3): 0 n (%)
- On-study deaths (normal hepatic function, 1.3 mg/m^2, N=14): 2 (14) n (%)
- On-study deaths (severe impairment, 0.5 mg/m^2, n=5): 2 (40) n (%)
- On-study deaths (severe impairment, 0.7 mg/m^2, n=6): 3 (50) n (%)
- On-study deaths (severe impairment, 1.0 mg/m^2, n=7): 2 (29) n (%)
- Bortezomib exposure on co-administration of omeprazole [2]: unaffected
- Pharmacokinetics in varying grades of renal impairment [3]: not altered
